Test: wn = mass fraction of the nth substance listed
Details: 101 kPa, Liquid, Pycnometric method

CCCCn1cc[n+](C)c1.COS(=O)(=O)[O-] [1-butyl-3-methylimidazolium methyl sulfate] + O
mass density [kg/m3]
Details | w1 = 0.1501 | w1 = 0.2002 | w1 = 0.2991 | w1 = 0.4993 | w1 = 0.6519 | w1 = 0.8012 | w1 = 0.8701 | w1 = 0.9325 | w1 = 1
293.15 K | 1025.8 | 1035.9 | 1056.1 | 1100.2 | 1134.9 | 1169.4 | 1184.8 | 1198.2 | 1211.7
295.15 K | 1025.1 | 1035.2 | 1055.2 | 1099 | 1133.5 | 1168 | 1183.4 | 1196.8 | 1210.4
297.15 K | 1024.4 | 1034.4 | 1054.3 | 1097.7 | 1132.2 | 1166.6 | 1182.1 | 1195.5 | 1209.1
299.15 K | 1023.7 | 1033.6 | 1053.3 | 1096.5 | 1130.7 | 1165.2 | 1180.7 | 1194.1 | 1207.7
301.15 K | 1022.9 | 1032.8 | 1052.3 | 1095.2 | 1129.4 | 1163.8 | 1179.3 | 1192.8 | 1206.4
303.15 K | 1022.2 | 1031.9 | 1051.3 | 1093.9 | 1128 | 1162.4 | 1177.9 | 1191.4 | 1205.1

O [water] + CCCCn1cc[n+](C)c1.COS(=O)(=O)[O-]
w2 = 0
Details | mass density [kg/m3]
293.15 K | 998.3
295.15 K | 997.9
297.15 K | 997.4
299.15 K | 996.9
301.15 K | 996.3
